Broadly, the IC50 is the concentration that gives 50% inhibition.

Consider 24 compounds from patent publication US9187472B2 (AbbVie Inc., priority 2012, dated 2015).

Experiment [1] concerns the target NAMPT (human, recombinant, C-terminally His-tagged) (Homo sapiens, UniProt P43490). The experiment in a line: Time-Resolved Fluorescence Resonance Energy Transfer (TR-FRET) Binding Assay of NAMPT. The settings on record: without substrates; 6.8 nM NAMPT, 200 nM probe, 3 hours equilibration. In outline: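 Compounds, diluted in half-log steps, are mixed with enzyme (6.8 nM), fluorescent probe (200 nM) and Tb-anti-His antibody (1 nM) in pH 7.5 HEPES buffer containing 10 mM MgCl2 and 1 mM DTT. Plates equilibrate 3 h at room temperature; normalized FRET ratios are fitted by four-parameter logistic regression for IC50.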
Background: In TR-FRET formats the signal depends on donor and acceptor labels being close together.

Experiment [2] has as its target NAMPT (Homo sapiens, UniProt P43490). The experiment in a line: TR-FRET Binding Assay of NAMPT with PRPP. The settings on record: with 200 μM PRPP and 2.5 mM ATP; 2 nM NAMPT, 2 nM probe, 16 hours equilibration. The essentials:
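Compounds were mixed with 2 nM His-tagged NAMPT, 2 nM probe, 1 nM terbium anti-His antibody, 200 μM PRPP and 2.5 mM ATP in assay buffer with 2% DMSO, then left 16 hours to permit possible enzymatic processing of compounds before time-resolved FRET was measured.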

The subject of experiment [3] is PC3 cells. The experiment is described as follows: NAMPT Cell Proliferation Assay. Type of experiment: cell-based. The settings on record: Homo sapiens, PC-3, 120 h, 5 days incubation, cell viability by Cell Titer Glo. In outline: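 Following overnight attachment in RPMI with 10% heat-inactivated FBS, PC3 cells at 500 per well receive compounds spanning 10 μM down to 1×10^−5 μM. Growth is assessed by luminescent viability read after 5 days.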

NAMPT, sequence (P43490 whole entry): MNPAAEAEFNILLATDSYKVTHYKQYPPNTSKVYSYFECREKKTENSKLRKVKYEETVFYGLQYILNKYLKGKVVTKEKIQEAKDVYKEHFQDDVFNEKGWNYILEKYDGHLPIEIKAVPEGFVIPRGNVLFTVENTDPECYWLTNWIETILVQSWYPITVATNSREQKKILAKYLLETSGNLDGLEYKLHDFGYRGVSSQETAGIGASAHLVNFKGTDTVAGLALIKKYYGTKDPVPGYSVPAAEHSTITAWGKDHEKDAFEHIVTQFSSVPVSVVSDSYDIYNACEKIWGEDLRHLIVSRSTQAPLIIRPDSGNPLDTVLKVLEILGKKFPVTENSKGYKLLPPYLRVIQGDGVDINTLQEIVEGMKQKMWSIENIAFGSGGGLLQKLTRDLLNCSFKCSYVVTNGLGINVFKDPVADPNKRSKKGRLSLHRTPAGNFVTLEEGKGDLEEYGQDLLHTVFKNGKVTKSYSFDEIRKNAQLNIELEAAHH
NAMPT (human, recombinant, C-terminally His-tagged), sequence (P43490 whole entry): as above

As to `O=C(NCc1ccc2nccn2c1)c1cnc(N(CC2CCOCC2)C(=O)C2CCOCC2)s1` [Example 144, N-(imidazo[1,2-a]pyridin-6-ylmethyl)-2-[(tetrahydro-2H-pyran-4-ylcarbonyl)(tetrahydro-2H-pyran-4-ylmethyl)amino]-1,3-thiazole-5-carboxamide], the IC50 was 9490 nM in experiment [1], 2.92 nM in experiment [2] and 187 nM in experiment [3].
Regarding `O=C(NCc1ccc2nccn2c1)c1cnc(N(CC2CCCO2)C(=O)Cc2ccon2)s1` (stereo not drawn) [Example 134, N-(imidazo[1,2-a]pyridin-6-ylmethyl)-2-[(1,2-oxazol-3-ylacetyl)(tetrahydrofuran-2-ylmethyl)amino]-1,3-thiazole-5-carboxamide], the IC50 was determined as 303 nM in experiment [1], 1.49 nM in experiment [2] and 6.54 nM in experiment [3].
As for `Cc1noc(C)c1CC(=O)N(C[C@H]1CCCO1)c1ncc(C(=O)NCc2ccn3ccnc3c2)s1` [Example 199, 2-{[(3,5-dimethyl-1,2-oxazol-4-yl)acetyl][(2R)-tetrahydrofuran-2-ylmethyl]amino}-N-(imidazo[1,2-a]pyridin-7-ylmethyl)-1,3-thiazole-5-carboxamide], the IC50 in experiment [1] is 9.76 nM; in experiment [2], 0.311 nM; in experiment [3], 0.539 nM.
For the compound `CC(C)OCC(=O)N1CCC(CCCCNC(=O)Nc2ccc3nccn3c2)CC1` [Example 62, 1-imidazo[1,2-a]pyridin-6-yl-3-(4-{1-[(propan-2-yloxy)acetyl]piperidin-4-yl}butyl)urea], the IC50 is 250 nM in experiment [1], 0.456 nM in experiment [2] and 16.5 nM in experiment [3].
As to `CC(C)(C)OC(=O)N1CCC(c2ccc(NC(=O)Nc3ccc4nccn4c3)cc2)CC1` [Example 89, tert-butyl 4-{4-[(imidazo[1,2-a]pyridin-6-ylcarbamoyl)amino]phenyl}piperidine-1-carboxylate], the IC50 turned out to be 667 nM in experiment [1], 0.383 nM in experiment [2] and 113 nM in experiment [3].
With `O=C(NCc1ccn2ccnc2c1)Nc1ccc(C2CN(C(=O)[C@@H]3CCCO3)C2)cc1` [Example 459], the figures for the IC50 in experiment [1], in experiment [2] and in experiment [3] were 381 nM, 0.41 nM and 77.7 nM, respectively.
As to `CCC(C)(C)C(=O)N1CCC(c2ccc(C(=O)NCc3ccn4ccnc4c3)cc2)CC1` [Example 501, 4-[1-(2,2-dimethylbutanoyl)piperidin-4-yl]-N-(imidazo[1,2-a]pyridin-7-ylmethyl)benzamide], the IC50 was 104 nM in experiment [1], 0.483 nM in experiment [2] and 5.96 nM in experiment [3].
As for `CC(C)(C)CC(=O)N1CCC(c2ccc(C(=O)NCc3ccn4ccnc4c3)s2)C1` (stereo not drawn) [Example 788, 5-[1-(3,3-dimethylbutanoyl)pyrrolidin-3-yl]-N-(imidazo[1,2-a]pyridin-7-ylmethyl)thiophene-2-carboxamide], the IC50 in experiment [1] came to 82 nM; in experiment [2], 0.674 nM; in experiment [3] it was 5.44 nM.
In the case of `Cc1cc(CC(=O)N(C[C@H]2CCCO2)c2ncc(C(=O)NCc3ccn4ccnc4c3)s2)nn1C` [Example 197, 2-{[(1,5-dimethyl-1H-pyrazol-3-yl)acetyl][(2R)-tetrahydrofuran-2-ylmethyl]amino}-N-(imidazo[1,2-a]pyridin-7-ylmethyl)-1,3-thiazole-5-carboxamide], the concentration for half-maximal inhibition (IC50) in experiment [1] worked out at 1570 nM; in experiment [2], 0.505 nM; in experiment [3], 25.4 nM.
On to `CN1CCC(C(=O)N2CC=C(c3ccc(NC(=O)Nc4ccc5nccn5c4)cc3)CC2)CC1` [Example 36, 1-imidazo[1,2-a]pyridin-6-yl-3-(4-{1-[(1-methylpiperidin-4-yl)carbonyl]-1,2,3,6-tetrahydropyridin-4-yl}phenyl)urea], for which the half-inhibitory concentration (IC50) was determined as 356 nM in experiment [1], 0.444 nM in experiment [2] and 51.4 nM in experiment [3].
Turning to `COCCNC(=O)N(CC1CCCO1)c1ncc(C(=O)NCc2ccn3ccnc3c2)s1` (stereo not drawn) [Example 138, N-(imidazo[1,2-a]pyridin-7-ylmethyl)-2-{[(2-methoxyethyl)carbamoyl](tetrahydrofuran-2-ylmethyl)amino}-1,3-thiazole-5-carboxamide], the IC50 in experiment [1] turned out to be 80.7 nM; in experiment [2], 0.424 nM; in experiment [3] it was 3.83 nM.
On the same counts, the results for `O=C(NCc1ccc2ncnn2c1)c1ccc(-c2cnn(CC3(F)CCOCC3)c2)o1` [Example 810, 5-{1-[(4-fluorotetrahydro-2H-pyran-4-yl)methyl]-1H-pyrazol-4-yl}-N-([1,2,4]triazolo[1,5-a]pyridin-6-ylmethyl)furan-2-carboxamide] are 481 nM, 12.6 nM and 327 nM.
Take `CC(C)Cn1cc(-c2ccc(C(=O)NCc3ccc4ncnn4c3)o2)cn1` [Example 820, 5-[1-(2-methylpropyl)-1H-pyrazol-4-yl]-N-([1,2,4]triazolo[1,5-a]pyridin-6-ylmethyl)furan-2-carboxamide]: the figures for the IC50 in experiment [1], in experiment [2] and in experiment [3] were 499 nM, 9.28 nM and 802 nM, respectively.
Turning to `O=C(NCc1ccn2ccnc2c1)c1ccc(C2CCN(C(=O)Cc3cccc(F)c3)C2)s1` (stereo not drawn) [Example 761, 5-{1-[(3-fluorophenyl)acetyl]pyrrolidin-3-yl}-N-(imidazo[1,2-a]pyridin-7-ylmethyl)thiophene-2-carboxamide], the IC50 came out at 94.4 nM in experiment [1], 0.394 nM in experiment [2] and 27.7 nM in experiment [3].
Consider `O=C(NCc1ccn2ccnc2c1)c1ccc(C2CCN(C(=O)Cc3ccccc3F)C2)s1` (stereo not drawn) [Example 765, 5-{1-[(2-fluorophenyl)acetyl]pyrrolidin-3-yl}-N-(imidazo[1,2-a]pyridin-7-ylmethyl)thiophene-2-carboxamide], for which the concentration for half-maximal inhibition (IC50) in experiment [1] was 36.5 nM; in experiment [2], 0.782 nM; in experiment [3], 2.91 nM.
Turning to `O=C(NCc1ccc2nccn2c1)c1ccc(C2=CCN(C(=O)C3CCCO3)CC2)cc1` (stereo not drawn) [Example 99, N-(imidazo[1,2-a]pyridin-6-ylmethyl)-4-[1-(tetrahydrofuran-2-ylcarbonyl)-1,2,3,6-tetrahydropyridin-4-yl]benzamide], the IC50 in experiment [1] stood at 119 nM; in experiment [2] it was 0.411 nM; in experiment [3], 26.4 nM.
With `N#Cc1cccc(C(=O)N2CCC(c3ccc(C(=O)NCc4ccn5ccnc5c4)cc3)CC2)c1` [Example 521, 4-[1-(3-cyanobenzoyl)piperidin-4-yl]-N-(imidazo[1,2-a]pyridin-7-ylmethyl)benzamide], the IC50 worked out at 413 nM in experiment [1], 0.292 nM in experiment [2] and 93.5 nM in experiment [3].
As to `CC(C)(O)Cn1cc(-c2ccc(C(=O)NCc3ccn4ccnc4c3)cc2)cn1` [Example 298, 4-[1-(2-hydroxy-2-methylpropyl)-1H-pyrazol-4-yl]-N-(imidazo[1,2-a]pyridin-7-ylmethyl)benzamide], the half-inhibitory concentration (IC50) in experiment [1] amounted to 3410 nM; in experiment [2] it was 0.557 nM; in experiment [3], 2370 nM.
For `O=C(NCc1ccn2ccnc2c1)c1ccc(-c2cnn(CC3CCCCO3)c2)o1` (stereo not drawn) [Example 477, N-(imidazo[1,2-a]pyridin-7-ylmethyl)-5-[1-(tetrahydro-2H-pyran-2-ylmethyl)-1H-pyrazol-4-yl]furan-2-carboxamide], the IC50 in experiment [1] was 72.9 nM; in experiment [2] it was 0.235 nM; in experiment [3], 3.21 nM.
Take `O=C(NCc1ccn2ccnc2c1)c1ccc(C2CCN(C(=O)c3ccccc3)CC2)cc1` [Example 437, 4-(1-benzoylpiperidin-4-yl)-N-(imidazo[1,2-a]pyridin-7-ylmethyl)benzamide]: the IC50 stood at 29.1 nM in experiment [1], 0.169 nM in experiment [2] and 7.02 nM in experiment [3].
Turning to `CC(C)OCCNC(=O)N(CC1CCOCC1)c1ncc(C(=O)NCc2ccc3nccn3c2)s1` [Example 152, N-(imidazo[1,2-a]pyridin-6-ylmethyl)-2-[{[2-(propan-2-yloxy)ethyl]carbamoyl}(tetrahydro-2H-pyran-4-ylmethyl)amino]-1,3-thiazole-5-carboxamide], the half-inhibitory concentration (IC50) turned out to be 3600 nM in experiment [1], 6.91 nM in experiment [2] and 28.3 nM in experiment [3].
Turning to `O=C(CC1CCCO1)Nc1ccc(NC(=O)NCc2ccn3ccnc3c2)cc1` (stereo not drawn) [Example 283, N-(4-{[(imidazo[1,2-a]pyridin-7-ylmethyl)carbamoyl]amino}phenyl)-2-(tetrahydrofuran-2-yl)acetamide], the IC50 in experiment [1] was found to be 63.2 nM; in experiment [2], 0.264 nM; in experiment [3] it was 145 nM.
Regarding `O=C(NCc1ccn2ccnc2c1)c1ccc(C2CCN(C(=O)C3CCCC3)C2)s1` (stereo not drawn) [Example 769, 5-[1-(cyclopentylcarbonyl)pyrrolidin-3-yl]-N-(imidazo[1,2-a]pyridin-7-ylmethyl)thiophene-2-carboxamide], the IC50 amounted to 98.4 nM in experiment [1], 0.705 nM in experiment [2] and 5.26 nM in experiment [3].
As to `O=C(NCc1ccn2ccnc2c1)c1ccc(C2CCN(C(=O)C3CC3)CC2)s1` [Example 260, 5-[1-(cyclopropylcarbonyl)piperidin-4-yl]-N-(imidazo[1,2-a]pyridin-7-ylmethyl)thiophene-2-carboxamide], the IC50 in experiment [1] came to 46.5 nM; in experiment [2], 0.351 nM; in experiment [3], 8.06 nM.
